Source: PubChem BioAssay (NCI)
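Step 1: Grow cells in 96-well plates. Step 2: Expose to compound for 48 hours at 5 concentrations. Step 3: Interpolate endpoints linearly; if unreached, use highest concentration. TGI is the concentration that stops growth completely.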

Tests used:
Assay in all cases: DTP human tumour cell line panel, 48 h
SF-268 CNS = test system: SF-268 CNS
IGROV1 ovarian = test system: IGROV1 ovarian
NCI/ADR-RES ovarian = test system: NCI/ADR-RES ovarian
NCI-H460 lung = test system: NCI-H460 lung
OVCAR-5 ovarian = test system: OVCAR-5 ovarian
M14 melanoma = test system: M14 melanoma
NCI-H226 lung = test system: NCI-H226 lung
A549 NSCLC = test system: A549 NSCLC
786-0 renal = test system: 786-0 renal
HS 578T breast = test system: HS 578T breast
OVCAR-4 ovarian = test system: OVCAR-4 ovarian
HCT-15 colon = test system: HCT-15 colon
SW-620 colon = test system: SW-620 colon
RXF 393 renal = test system: RXF 393 renal
HT29 colon = test system: HT29 colon
RPMI-8226 leukemia = test system: RPMI-8226 leukemia
HOP-62 NSCLC = test system: HOP-62 NSCLC
SK-MEL-2 melanoma = test system: SK-MEL-2 melanoma
SK-MEL-5 melanoma = test system: SK-MEL-5 melanoma
SNB-19 CNS = test system: SNB-19 CNS
ACHN renal = test system: ACHN renal
MDA-N = test system: MDA-N
COLO 205 colon = test system: COLO 205 colon
EKVX NSCLC = test system: EKVX NSCLC
U251 CNS = test system: U251 CNS
SF-539 CNS = test system: SF-539 CNS
SR leukemia = test system: SR leukemia
CAKI-1 renal = test system: CAKI-1 renal
MOLT-4 leukemia = test system: MOLT-4 leukemia
TK-10 renal = test system: TK-10 renal
MDA-MB-231 breast = test system: MDA-MB-231 breast
CCRF-CEM leukemia = test system: CCRF-CEM leukemia
HL-60(TB) leukemia = test system: HL-60(TB) leukemia
SNB-75 CNS = test system: SNB-75 CNS
BT-549 breast = test system: BT-549 breast
MDA-MB-435 = test system: MDA-MB-435
SK-OV-3 ovarian = test system: SK-OV-3 ovarian
OVCAR-3 ovarian = test system: OVCAR-3 ovarian
SF-295 CNS = test system: SF-295 CNS
DU-145 prostate = test system: DU-145 prostate
UACC-257 melanoma = test system: UACC-257 melanoma
NCI-H23 lung = test system: NCI-H23 lung
KM12 colon = test system: KM12 colon
OVCAR-8 ovarian = test system: OVCAR-8 ovarian
MALME-3M melanoma = test system: MALME-3M melanoma
HCC-2998 colon = test system: HCC-2998 colon
T-47D breast = test system: T-47D breast
UO-31 renal = test system: UO-31 renal
HOP-92 NSCLC = test system: HOP-92 NSCLC
HCT-116 colon = test system: HCT-116 colon
MCF7 breast = test system: MCF7 breast
NCI-H522 lung = test system: NCI-H522 lung
UACC-62 melanoma = test system: UACC-62 melanoma
LOX IMVI melanoma = test system: LOX IMVI melanoma
A498 renal = test system: A498 renal
K-562 leukemia = test system: K-562 leukemia
SN12C renal = test system: SN12C renal
SK-MEL-28 melanoma = test system: SK-MEL-28 melanoma
PC-3 prostate = test system: PC-3 prostate

Q: With `Fc1ccc(N2C(=S)SC(=Nc3ccccc3)C2=Nc2ccccc2)cc1` as the compound, how does the TGI (SF-268 CNS) read?
A: > 100 µM

Q: And the TGI (IGROV1 ovarian)?
A: > 100 µM

Q: And the TGI (NCI/ADR-RES ovarian)?
A: > 100 µM

Q: What about the TGI (NCI-H460 lung) of the same compound?
A: > 100 µM

Q: And the TGI (OVCAR-5 ovarian)?
A: > 100 µM

Q: What about the TGI (M14 melanoma) of the same compound?
A: > 100 µM

Q: And the TGI (NCI-H226 lung)?
A: > 100 µM

Q: What about the TGI (A549 NSCLC) of the same compound?
A: > 100 µM

Q: What about the TGI (786-0 renal) of the same compound?
A: > 100 µM

Q: And the TGI (HS 578T breast)?
A: > 100 µM

Q: What about the TGI (OVCAR-4 ovarian) of the same compound?
A: > 100 µM

Q: And the TGI (HCT-15 colon)?
A: > 100 µM

Q: And the TGI (SW-620 colon)?
A: > 100 µM

Q: What about the TGI (RXF 393 renal) of the same compound?
A: > 100 µM

Q: And the TGI (HT29 colon)?
A: > 100 µM

Q: And the TGI (RPMI-8226 leukemia)?
A: > 100 µM

Q: And the TGI (HOP-62 NSCLC)?
A: > 100 µM

Q: And the TGI (SK-MEL-2 melanoma)?
A: > 100 µM

Q: And the TGI (SK-MEL-5 melanoma)?
A: > 100 µM

Q: What about the TGI (SNB-19 CNS) of the same compound?
A: > 100 µM

Q: And the TGI (ACHN renal)?
A: > 100 µM

Q: What about the TGI (MDA-N) of the same compound?
A: > 100 µM

Q: What about the TGI (COLO 205 colon) of the same compound?
A: > 100 µM

Q: What about the TGI (EKVX NSCLC) of the same compound?
A: > 100 µM

Q: And the TGI (U251 CNS)?
A: > 100 µM

Q: What about the TGI (SF-539 CNS) of the same compound?
A: > 100 µM

Q: What about the TGI (SR leukemia) of the same compound?
A: > 100 µM

Q: What about the TGI (CAKI-1 renal) of the same compound?
A: > 100 µM

Q: What about the TGI (MOLT-4 leukemia) of the same compound?
A: > 100 µM

Q: And the TGI (TK-10 renal)?
A: > 100 µM

Q: What about the TGI (MDA-MB-231 breast) of the same compound?
A: > 100 µM

Q: What about the TGI (CCRF-CEM leukemia) of the same compound?
A: > 46.4 µM

Q: What about the TGI (HL-60(TB) leukemia) of the same compound?
A: > 100 µM

Q: What about the TGI (SNB-75 CNS) of the same compound?
A: > 100 µM

Q: And the TGI (BT-549 breast)?
A: > 100 µM

Q: And the TGI (MDA-MB-435)?
A: > 100 µM

Q: What about the TGI (SK-OV-3 ovarian) of the same compound?
A: > 100 µM

Q: What about the TGI (OVCAR-3 ovarian) of the same compound?
A: > 100 µM

Q: What about the TGI (SF-295 CNS) of the same compound?
A: > 100 µM

Q: And the TGI (DU-145 prostate)?
A: > 100 µM

Q: What about the TGI (UACC-257 melanoma) of the same compound?
A: > 100 µM

Q: And the TGI (NCI-H23 lung)?
A: > 100 µM

Q: And the TGI (KM12 colon)?
A: > 100 µM

Q: And the TGI (OVCAR-8 ovarian)?
A: > 100 µM

Q: And the TGI (MALME-3M melanoma)?
A: > 100 µM

Q: And the TGI (HCC-2998 colon)?
A: > 100 µM

Q: And the TGI (T-47D breast)?
A: > 100 µM

Q: What about the TGI (UO-31 renal) of the same compound?
A: > 100 µM

Q: And the TGI (HOP-92 NSCLC)?
A: > 100 µM

Q: And the TGI (HCT-116 colon)?
A: > 100 µM

Q: What about the TGI (MCF7 breast) of the same compound?
A: > 100 µM

Q: And the TGI (NCI-H522 lung)?
A: > 100 µM

Q: And the TGI (UACC-62 melanoma)?
A: > 100 µM

Q: What about the TGI (LOX IMVI melanoma) of the same compound?
A: > 100 µM

Q: What about the TGI (A498 renal) of the same compound?
A: > 100 µM

Q: What about the TGI (K-562 leukemia) of the same compound?
A: > 100 µM

Q: What about the TGI (SN12C renal) of the same compound?
A: > 100 µM

Q: And the TGI (SK-MEL-28 melanoma)?
A: > 100 µM

Q: What about the TGI (PC-3 prostate) of the same compound?
A: > 100 µM

Q: What does the source list for `Cc1cc[n+]2c(c1)-c1cc(C)cc[n+]1CC2`?
A: TGI (SF-268 CNS): > 100 µM; TGI (IGROV1 ovarian): > 100 µM; TGI (NCI/ADR-RES ovarian): > 100 µM; TGI (NCI-H460 lung): > 100 µM; TGI (OVCAR-5 ovarian): > 100 µM; TGI (M14 melanoma): > 100 µM; TGI (NCI-H226 lung): > 100 µM; TGI (A549 NSCLC): > 100 µM; TGI (786-0 renal): > 100 µM; TGI (HS 578T breast): > 100 µM; TGI (OVCAR-4 ovarian): > 100 µM; TGI (HCT-15 colon): > 100 µM; TGI (SW-620 colon): > 100 µM; TGI (RXF 393 renal): > 100 µM; TGI (HT29 colon): > 100 µM; TGI (RPMI-8226 leukemia): > 100 µM; TGI (HOP-62 NSCLC): > 100 µM; TGI (SK-MEL-2 melanoma): > 100 µM; TGI (SK-MEL-5 melanoma): > 100 µM; TGI (SNB-19 CNS): > 100 µM; TGI (ACHN renal): > 100 µM; TGI (MDA-N): > 100 µM; TGI (COLO 205 colon): > 86.1 µM; TGI (EKVX NSCLC): > 100 µM; TGI (U251 CNS): > 100 µM; TGI (SF-539 CNS): > 100 µM; TGI (SR leukemia): > 100 µM; TGI (CAKI-1 renal): > 100 µM; TGI (MOLT-4 leukemia): > 100 µM; TGI (TK-10 renal): > 100 µM; TGI (MDA-MB-231 breast): > 100 µM; TGI (CCRF-CEM leukemia): > 100 µM; TGI (HL-60(TB) leukemia): > 100 µM; TGI (SNB-75 CNS): > 100 µM; TGI (BT-549 breast): > 100 µM; TGI (MDA-MB-435): > 100 µM; TGI (SK-OV-3 ovarian): > 100 µM; TGI (OVCAR-3 ovarian): > 100 µM; TGI (SF-295 CNS): > 100 µM; TGI (DU-145 prostate): > 100 µM; TGI (UACC-257 melanoma): > 100 µM; TGI (NCI-H23 lung): > 100 µM; TGI (KM12 colon): > 100 µM; TGI (OVCAR-8 ovarian): > 100 µM; TGI (MALME-3M melanoma): > 100 µM; TGI (HCC-2998 colon): > 100 µM; TGI (T-47D breast): > 100 µM; TGI (UO-31 renal): > 100 µM; TGI (HOP-92 NSCLC): > 100 µM; TGI (HCT-116 colon): > 100 µM; TGI (MCF7 breast): > 100 µM; TGI (NCI-H522 lung): > 92.9 µM; TGI (UACC-62 melanoma): > 100 µM; TGI (LOX IMVI melanoma): > 100 µM; TGI (A498 renal): > 100 µM; TGI (K-562 leukemia): > 100 µM; TGI (SN12C renal): > 100 µM; TGI (SK-MEL-28 melanoma): > 100 µM; TGI (PC-3 prostate): > 100 µM
